Measured values published in patent US20060014728A1, “Hormone replacement therapy” (priority 1996, published 2006).
Several values for one entry are separate records, joined by “and”; a condition that tells them apart may be missing. Identical values can stand only once.

Tests used:
[1] = tested on: ovariectomized cynomolgus monkeys; test: Withdrawal menses after sequential estradiol and progesterone therapy without versus with antiprogestin treatment (menstrual challenges A and B); assay type: in vivo
Text: 30 ovariecomized cynomolgus monkeys were studied intensively over 12 weeks. Primates in Group I (N=5 each) received only the vehicles used for hormone delivery in Groups II-VI. Monkeys in Group II received estradiol at physiologic levels throughout (days 1 to 81) via a sc silastic implant, as well as two separate courses of progesterone at physiologic levels via a sc silastic implant (days 28 to 35 and 67 to 74). Groups III-VI received the same sequential regimen of estradiol and progesterone as Group II, but in addition were given an antiprogestin im on alternate days 39 to 67: Group III, mifepristone (RU 486) 2.0 mg/kg; Group IV, mifepristone 20.0 mg/kg; Group V, onapristone (ZK 299) 2.0 mg/kg; and Group VI, onapristone 20.0 mg/kg. The two menstrual challenge tests (A and B) were defined as the six days immediately after withdrawal of progesterone treatment (A on days 36 to 41 and B on days 75 to 80).
The protocol thus provided two periods of estrogen-only HRT treatment, one without antiprogestin followed by another with antiprogestin. Each of these two periods was followed by short-term progesterone treatment which provided a measurement of the effects on bleeding of the antiprogestin during the estrogen HRT treatment.
(§1) The monkeys were randomly distributed into six treatment group preparations (n=5 each). Group I (control) was treated with the vehicle only. One empty silastic implant was placed sc surgically from study day 1 to 81; this controlled for estradiol treatment. Another empty silastic implant was inserted sc from days 28 to 35 and from days 67 to 74 and controlled for progesterone treatment. One ml of the antiprogestin vehicle was administered im on alternate days (39 to 67). Group II received continuous estradiol progesterone at two intervals but no antiprogestins. This experimental design allowed two menstrual challenges (A and B). As described below (Groups III-VI), menstrual challenge A was without antiprogestin exposure; whereas B was with antiprogestin treatment. Group III monkeys received the sequential estradiol and progesterone regimens as in Group II but also RU 486 at 2.0 mg/kg on alternate days for four weeks (days 39 to 67). For Group IV, the same treatment occurred, except that the RU 486 dose was elevated by ten-fold (20.0 mg/kg). Similarly, primates in Groups V and VI were injected with onapristone at 2.0 and 20.0 mg/kg, respectively.
(§2) In all treatment groups, observations for menstrual bleeding were made daily by visual inspection of the vaginal labia. Femoral blood collections (4.0 ml) were taken under ketamine-induced anesthesia (10 mg/kg) on alternate days and endometrial biopsies (by hysterotomy) were obtained on days 53 and 70. Endometrial biopsies were placed in formalin […] and processed for histologic evaluation by a clinical pathologist. Thickness of the endometrial tissues was measured with an ocular micrometer to determine the depth of the endometrium at its point of maximal thickness from the myometrial unction to the epithelial layer at the lumenal surface. Endometrial status was evaluated qualitatively and classified according to the following score: atrophic:O; early proliferative: 1; late proliferative:2; interval:3; early secretory:4; and late secretory:5.

endometrial tissues = test: Histologic evaluation of primate endometrial tissues on days 53 and 70 (Example 1); assay type: in vivo, cynomolgus monkeys; conditions: for Endometrial Score: score 0-atrophic to 5-secretory; for Thickness (mm): mean ± SD; for thicknesses of endometrial tissues: day 70, Groups III-VI (2.0 and 20.0 mg/kg together)
Text: Additional data were collected by measurements of estradiol, progesterone and cortisol, as well as each antiprogestin in serum drawn on alternate days (1 to 81). Also, endometrial response was examined histologically in biopsy specimens collected on days 53 and 70, both to measure thickness of endometrial tissue (i.e., anti-proliferative response) and to assess the endometrial tissue qualitatively (atrophic, proliferative, or secretory, etc.).
as §1, §2

endometrium = test: Antiproliferative action of antiprogestins on the endometrium in estrogen-replaced, ovariectomized cynomolgus monkeys (Example 2); assay type: in vivo; conditions: biopsy day 30; 1 or 3 mg/kg im daily days 1-30; estradiol capsule sc
[2] = 20.0 mg/kg im on alternate days 39-67, with estradiol + progesterone
[3] = Menstrual Challenge A, withdrawal interval days 36-41, antiprogestins: none (baseline before antiprogestin), groups later given 2 mg/kg
[4] = Menstrual Challenge A, withdrawal interval days 36-41, antiprogestins: none (baseline before antiprogestin), groups later given 20 mg/kg
[5] = Menstrual Challenge B, withdrawal interval days 75-80, estradiol + progesterone + antiprogestin 2 mg/kg im on alternate days 39-67
[6] = Menstrual Challenge B, withdrawal interval days 75-80, estradiol + progesterone + antiprogestin 20 mg/kg im on alternate days 39-67
[7] = Day 53, antiprogestin 2.0 mg/kg
[8] = Day 53, antiprogestin 20.0 mg/kg
[9] = Day 53, estradiol + progesterone + antiprogestin 2.0 mg/kg im alternate days 39-67
[10] = Day 53, estradiol + progesterone + antiprogestin 20.0 mg/kg im alternate days 39-67
[11] = Day 70, antiprogestin 2.0 mg/kg
[12] = Day 70, antiprogestin 20.0 mg/kg
[13] = Day 70, estradiol + progesterone + antiprogestin 2.0 mg/kg im alternate days 39-67
[14] = Day 70, estradiol + progesterone + antiprogestin 20.0 mg/kg im alternate days 39-67

| Compound | bleeding outcome during menstrual challenge B ([1]; 2.0 mg/kg im on alternate days 39-67, with estradiol + progesterone) | bleeding outcome during menstrual challenge B [1, 2] | Incidence of Bleeding, Days [1, 3] | Incidence of Bleeding, Days [1, 4] | Incidence of Bleeding, Days [1, 5] | Incidence of Bleeding, Days [1, 6] | Endometrial Score (endometrial tissues; [7]) | Endometrial Score (endometrial tissues; [8]) | Thickness (mm) (endometrial tissues; [9]) | Thickness (mm) (endometrial tissues; [10]) | Endometrial Score (endometrial tissues; [11]) | Endometrial Score (endometrial tissues; [12]) | Thickness (mm) (endometrial tissues; [13]) | Thickness (mm) (endometrial tissues; [14]) | thicknesses of endometrial tissues (endometrial tissues) | classification of endometrial specimens (developmental stage) (endometrium) | Incidence of Bleeding, Days ([1]; Menstrual Challenge B, withdrawal interval days 75-80, estradiol + progesterone + antiprogestin 2 mg/kg im on alternate days 39-67, listed as ONA) | histological evaluation of endometrium (endometrial tissues; Group V, 2.0 mg/kg) |
| --- | --- | --- | --- | --- | --- | --- | --- | --- | --- | --- | --- | --- | --- | --- | --- | --- | --- | --- |
| CC#C[C@]1(O)CC[C@H]2[C@@H]3CCC4=CC(=O)CCC4=C3[C@@H](c3ccc(N(C)C)cc3)C[C@@]21C [mifepristone, 11β-(4-dimethylaminophenyl)-17β-hydroxy-1-propinyl-4,9estradien-3-one] | complete amenorrhea | complete amenorrhea | 13/30 | 12/30 | 0/30 | 0/30 | 3.6 | 3.8 | 2.5 ± 0.2 | 2.2 ± 0.2 | 2.4 | 2.8 | 1.8 ± 0.2 mm | 1.3 ± 0.1 | approximately 1.5 mm | proliferative |  |  |
| CN(C)c1ccc([C@H]2C[C@]3(C)[C@@H](CC[C@]3(O)CCCO)[C@@H]3CCC4=CC(=O)CCC4=C32)cc1 [onapristone, 1β-(4-dimethylaminophenyl)-17-hydroxy-17β-(3-hydroxypropyl)-13-methyl-4,9-gonadien-3-one] |  | complete amenorrhea | 9/30 | 9/30 | three | 0/30 | 3.8 | 3.6 | 2.6 ± 0.2 | 2.2 ± 0.1 | 4.0 | 3.0 | 1.6 mm and 1.6 ± 0.1 mm | 1.7 ± 0.1 | approximately 1.5 mm | interval | 3/30 | well-developed secretory glands |
| C[C@]12C[C@@H]3c4ccc(-c5ccc(C#N)cc5)cc4C[C@]45CCC(=O)C=C4CC[C@@H]([C@H]35)[C@@H]1CC[C@@]2(O)/C=C/CO [ZK136798] |  |  |  |  |  |  |  |  |  |  |  |  |  |  |  | interval |  |  |
